Data as given in BindingDB's records for PubMed 32066009 (Hefei University of Technology, 2020).

Legend:
Prothrombin = Prothrombin (Homo sapiens, UniProt P00734); experiment: Inhibition of thrombin (unknown origin)
Coagulation factor X = Coagulation factor X (Homo sapiens, UniProt P00742); experiment: Inhibition of human fXA by fluorescence based analysis
Coagulation factor XII = molecular target: T1, Coagulation factor XII (Homo sapiens, UniProt P00748); experiment: Inhibition of human fXIIA by fluorescence based analysis
T1 sequence (P00748 whole entry): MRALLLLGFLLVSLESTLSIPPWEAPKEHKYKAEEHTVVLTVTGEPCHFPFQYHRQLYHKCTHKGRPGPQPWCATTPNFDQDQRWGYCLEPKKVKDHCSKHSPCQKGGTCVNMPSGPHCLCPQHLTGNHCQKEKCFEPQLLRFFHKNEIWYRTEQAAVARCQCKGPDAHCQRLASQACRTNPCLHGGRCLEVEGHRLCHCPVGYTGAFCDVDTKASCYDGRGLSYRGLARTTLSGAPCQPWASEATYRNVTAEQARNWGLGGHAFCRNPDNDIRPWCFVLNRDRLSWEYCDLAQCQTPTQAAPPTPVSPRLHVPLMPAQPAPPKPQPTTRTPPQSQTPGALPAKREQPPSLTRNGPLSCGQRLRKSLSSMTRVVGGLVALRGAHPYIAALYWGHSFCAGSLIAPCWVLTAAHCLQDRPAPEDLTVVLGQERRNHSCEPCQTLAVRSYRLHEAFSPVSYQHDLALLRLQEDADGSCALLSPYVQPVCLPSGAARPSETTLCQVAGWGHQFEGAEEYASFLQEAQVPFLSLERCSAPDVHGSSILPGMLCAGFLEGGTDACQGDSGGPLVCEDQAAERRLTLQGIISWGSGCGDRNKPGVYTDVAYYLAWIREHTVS

Sequence of Coagulation factor X (P00742 41-179 limits assumed): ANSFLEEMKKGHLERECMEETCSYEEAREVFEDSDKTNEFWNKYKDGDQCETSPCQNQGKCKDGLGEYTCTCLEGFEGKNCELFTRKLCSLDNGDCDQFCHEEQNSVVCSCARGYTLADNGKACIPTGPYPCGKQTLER
Sequence of Coagulation factor X (P00742 235-488 limits assumed): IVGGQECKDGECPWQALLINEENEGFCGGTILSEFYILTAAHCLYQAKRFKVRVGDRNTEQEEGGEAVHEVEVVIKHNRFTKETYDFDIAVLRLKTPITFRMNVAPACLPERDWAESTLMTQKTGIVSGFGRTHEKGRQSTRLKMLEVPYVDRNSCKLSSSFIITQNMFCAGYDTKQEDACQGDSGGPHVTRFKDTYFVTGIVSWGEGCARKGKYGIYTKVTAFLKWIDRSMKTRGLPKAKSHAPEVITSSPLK

IC50 (Prothrombin) | Compound | IC50 (Coagulation factor X) | IC50 (Coagulation factor XII)
> 1000 µM | CC(=O)c1ccc(NC(=O)[C@H](Cc2ccccc2)NC(=O)C2CCC(CN)CC2)cc1 (some centres undefined) |  | 
> 1000 µM | NCC1CCC(C(=O)N[C@@H](Cc2ccccc2)C(=O)Nc2ccc(CC(=O)O)cc2)CC1 (some centres undefined) |  | 
 | CCOc1ccc(C[C@@H](NC(=O)c2ccccc2)C(=O)N[C@@H](Cc2ccccc2)C(=O)NCc2ccc(CN)cc2)cc1 [US9234000, 3] | > 10 µM | > 10 µM
